Patent US7977049B2, “Methods and compositions for extending the life span and increasing the stress resistance of cells and organisms” (priority 2002, dated 2011)
Where two headings read alike, the source gives them in different places.

What was measured:
recombinant human SIRT1 = target: T1, recombinant human SIRT1 (Homo sapiens, UniProt Q96EB6); assay: In vitro deacetylation assay (HDAC Fluorescent Activity Assay), SIRT1; assay type: biochemical
T1 sequence (Q96EB6 1-747): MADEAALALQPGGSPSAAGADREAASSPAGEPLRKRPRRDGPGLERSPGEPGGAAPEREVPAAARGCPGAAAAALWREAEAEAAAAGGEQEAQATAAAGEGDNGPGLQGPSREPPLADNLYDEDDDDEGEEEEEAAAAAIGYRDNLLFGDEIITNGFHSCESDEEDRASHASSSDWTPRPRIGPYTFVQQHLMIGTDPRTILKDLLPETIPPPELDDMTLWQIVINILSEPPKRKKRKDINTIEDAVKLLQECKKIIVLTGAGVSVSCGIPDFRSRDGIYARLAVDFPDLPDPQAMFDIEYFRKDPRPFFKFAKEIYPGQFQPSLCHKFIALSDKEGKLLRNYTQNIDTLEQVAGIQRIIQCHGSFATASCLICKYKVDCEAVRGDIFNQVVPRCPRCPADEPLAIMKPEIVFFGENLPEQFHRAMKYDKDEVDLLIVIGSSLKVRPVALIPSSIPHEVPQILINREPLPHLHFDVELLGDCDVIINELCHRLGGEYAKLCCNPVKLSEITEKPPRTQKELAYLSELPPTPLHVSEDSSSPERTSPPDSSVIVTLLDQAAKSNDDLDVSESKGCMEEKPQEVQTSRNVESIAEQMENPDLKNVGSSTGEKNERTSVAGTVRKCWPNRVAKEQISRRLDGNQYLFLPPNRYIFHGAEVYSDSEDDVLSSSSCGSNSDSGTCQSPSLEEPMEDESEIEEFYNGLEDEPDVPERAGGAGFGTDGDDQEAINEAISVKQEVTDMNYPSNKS
Procedure: (§1) FIG. 13. […] Reactions were terminated by the addition of developer and samples were analyzed by fluorometry (excitation set at 360 nm and emission at 460 nm). Experiments were performed in triplicate. Data is shown as a Lineweaver-Burk double reciprocal plot of arbitrary fluorescence units (AFUs) min^−1 versus NAD^+ (μM). B, Experiments were performed as in A, except that recombinant human SIRT1 was used and reactions were carried out at 37° C. […] Reactions were carried out at 37° C. for 30 minutes and fluorescence was measured as in A.
(§2) In vitro deacetylation assays—Recombinant GST tagged yeast Sir2p (gift of D. Moazed) and recombinant human SIRT1 (47′) were assayed for deacetylase activity using the HDAC Fluorescent Activity Assay/Drug Discovery Kit (AK-500, BIOMOL Research Laboratories). This assay system allows detection of a fluorescent signal upon deacetylation of a histone substrate when treated with developer. Fluorescence was measured on a fluorometric reader (Cytofluor II 400 series PerSeptive Biosystems) with excitation set at 360 nm and emission detection set at 460 nm. Reactions consisted of either 5 μg of GST-Sir2 or 2.5 μg of SIRT1, incubated with 250 μM acetylated histone substrate, 1 mM DTT and a range of NAD^+ concentrations as described, in 50 μl of assay buffer. […]

[1] = target: T2, Recombinant GST tagged yeast Sir2p (Saccharomyces cerevisiae, UniProt P06700); assay: In vitro deacetylation assay (HDAC Fluorescent Activity Assay), Sir2; assay type: biochemical; details: 200-750 μM NAD+, 30° C.
T2 construct: gift of D. Moazed
T2 sequence (P06700 whole entry): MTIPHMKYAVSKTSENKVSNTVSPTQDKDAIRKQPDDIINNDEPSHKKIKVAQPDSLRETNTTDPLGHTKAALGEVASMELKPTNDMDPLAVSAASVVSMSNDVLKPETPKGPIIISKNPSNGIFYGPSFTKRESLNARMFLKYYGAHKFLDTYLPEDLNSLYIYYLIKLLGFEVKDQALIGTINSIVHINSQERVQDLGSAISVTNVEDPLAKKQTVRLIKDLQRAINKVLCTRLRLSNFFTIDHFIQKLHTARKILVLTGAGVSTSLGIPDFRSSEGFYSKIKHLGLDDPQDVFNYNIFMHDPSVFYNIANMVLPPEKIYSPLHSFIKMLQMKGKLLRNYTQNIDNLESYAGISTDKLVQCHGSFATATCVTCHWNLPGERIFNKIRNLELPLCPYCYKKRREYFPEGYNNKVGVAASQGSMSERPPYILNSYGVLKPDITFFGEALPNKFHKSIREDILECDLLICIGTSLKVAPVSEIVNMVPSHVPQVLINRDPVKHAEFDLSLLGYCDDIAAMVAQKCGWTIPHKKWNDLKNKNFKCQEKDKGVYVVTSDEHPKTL
Procedure: as §1, §2

[2] = test system: yeast (PSY316AT and sir2::TRP1 strains)
Procedure: (§3) FIG. 9. […] A, Strains were assayed for rDNA stability by examining the rate of loss of an ADE2 marker integrated at the rDNA locus. […] More than 10,000 colonies were examined for each strain and each experiment was performed in triplicate. Average recombination frequencies (+/−s.d.) per cell division are shown. Relevant strains: W303-1A RDN1::ADE2 (W303AR5) and W303AR5 derivatives 2×SIR2 (YDS1572) and sir2::TRP1 (YDS878). […] C and D, Life spans were determined by scoring the number of daughter cells produced by each mother cell before cessation of cell division (68′,69′). Cells were pre-grown for a minimum of 48 h on complete glucose medium.
Replicative life span determination was performed by micromanipulation as described (25′). A minimum of 40 cells were examined per experiment and each experiment was performed at least twice independently. Statistical significance of life span differences was determined using the Wilcoxon rank sum test. Differences are stated to be significant when the confidence is higher than 95%.
Cells were grown for two days on fresh yeast YPD medium to ensure that they had fully recovered from conditions of calorie restriction prior to the assay. Daughter cells that emerged from previously unbudded mother cells were then micro-manipulated away and scored.

[3] = test system: rDNA locus of yeast (W303AR5 strains); assay: Ribosomal DNA recombination (loss of ADE2 marker at the rDNA locus); assay type: cell-based, Saccharomyces cerevisiae; details: 5 mM nicotinamide
Procedure: as §3

silencing at telomeres = assay: Telomeric silencing assay (ADE2 marker at the telomere); assay type: cell-based, Saccharomyces cerevisiae; details: 5 mM nicotinamide, limiting adenine
Procedure: Silencing of the MET15 marker is indicated by the accumulation of a brown pigment. Single dark brown colonies in RDN1::MET15 strains represent marker loss events. Relevant genotypes: met15Δ (JS209), MET15 (JS241), RDN1::MET15 (JS237), sir2::TRP1 (JS218), 2×SIR2 (YDS1583). […] Silencing of the ADE2 marker results in the accumulation of a red pigment. Relevant genotypes: (PSY316AT), W303-1 A ADE2 (YDS1596) and W303-1A ade2 (YDS 1595).
Cells were grown at 30° C. on YPD medium (1% yeast extract, 2% bactopeptone, 2% glucose w/v) unless otherwise stated. The extent of silencing at the ribosomal DNA locus was determined by growing RDN1::MET15 strains on Pb^2+-containing medium (0.3% peptone, 0.5% yeast extract, 4% glucose, 0.02% (w/v) ammonium acetate, 0.07% Pb(NO3)2 and 2% agar). […] Ribosomal DNA recombination frequencies were determined as previously described (44′).
To monitor telomeric silencing, we used a strain in which the ADE2 gene is integrated at the subtelomeric (Y′) region of the right arm of chromosome V (22′). On plates with limiting adenine, colonies have red/white sectors due to variegated expression of the ADE2 marker.

[4] = test system: silencing of mating type genes; assay: Mating type locus silencing assay; assay type: cell-based, Saccharomyces cerevisiae; details: nicotinamide
[5] = test system: silent mating type locus (HMR); assay: HMR::GFP reporter silencing (fluorescence microscopy and FACS); assay type: cell-based, Saccharomyces cerevisiae; details: for GFP expression from HMR by FACS: asynchronous wild type cells, 5 mM compound
Procedure: FIG. 10. […] Cells were photographed live. […] Cells were analyzed by fluorescent activated cell sorting (FACS) to determine the extent of ADH-GFP expression. C, A MATa derivative of strain YDS970 (YDS1005) was deleted for HML and treated with 10 μg/ml alpha-factor for 3 hours. […] Cell cycle progression was monitored at each time point by FACS analysis of propidium iodide stained cells.
GFP fluorescence was quantified by fluorescence-activated cell sorting (FACS) using a FACSCalibur flow cytometer (Becton Dickinson, Calif.) as described (45′). For G1-arrest experiments, cells were treated with 10 μg/ml alpha factor for 3 hours. DNA content was determined by FACS analysis of fixed cells stained with propidium iodide (Sigma) as described (45′). Typically 20,000 cells were analyzed per sample. Data acquisition and analysis were performed using CELLQuest software (Becton Dickenson).

Sir2 = Sir2 protein levels in the presence of nicotinamide; assay type: cell-based, Saccharomyces cerevisiae; details: nicotinamide 1-5 mM
[6] = target: T3, association of Sir2 with rDNA, HMR and sub-telomeric DNA (Saccharomyces cerevisiae, UniProt P06700); assay: Chromatin immunoprecipitation with α-Sir2 antibody; assay type: cell-based; details: 5 mM nicotinamide
T3 construct: endogenous in cells; host or cells: S. cerevisiae W303AR5
T3 sequence (P06700 whole entry): as above
Procedure: FIG. 12. […] PCR amplification of both input DNA from whole cell extracts and immunoprecipitated chromatin are shown. PCR was performed using primer pairs specific for the CUP1 gene (top panels), 5S rDNA (second panels), the HMR locus (third panels), or subtelomeric DNA 1.4 and 0.6 kb from telomeres (bottom panels).
Fluorescence Microscopy and Chomatin immunoprecipitation—GFP fluorescence was visualized in live cells grown to log phase in synthetic complete (SC) medium (1.67% yeast nitrogen base, 2% glucose, 40 mg/liter each of histidine, uridine, tryptophan, adenine and leucine). Images were captured using a Nikon Eclipse E600 microscope at a magnification of 1000× and analyzed with Scion Image software. PCR reactions were carried out in a 50 μl volume using a 1/5000 or a 1/12500 dilution of input DNA from precleared whole-cell extracts and a 1/50 dilution of immunoprecipitated DNA. PCR parameters were as follows. For CUP1 and 5S rDNA primer pairs, 26 cycles of PCR were performed with an annealing temperature of 55° C. For Tel 0.6, Tel 1.4 and HM primer pairs 32 cycles at an annealing temperature of 50° C. were used. PCR products were separated by gel electrophoresis on a 2.3% agarose gel and visualized by ethidium bromide staining.

[7] = test system: silencing at the rDNA locus (RDN1)
Procedure: Silencing of the MET15 marker is indicated by the accumulation of a brown pigment. Single dark brown colonies in RDN1::MET15 strains represent marker loss events. […] Silencing of the ADE2 marker results in the accumulation of a red pigment.
Cells were grown at 30° C. on YPD medium (1% yeast extract, 2% bactopeptone, 2% glucose w/v) unless otherwise stated. The extent of silencing at the ribosomal DNA locus was determined by growing RDN1::MET15 strains on Pb^2+-containing medium (0.3% peptone, 0.5% yeast extract, 4% glucose, 0.02% (w/v) ammonium acetate, 0.07% Pb(NO3)2 and 2% agar).
Strains with either an ADE2 or MET15 marker integrated at the rDNA locus (RDN1) were examined. Silencing of ADE2 results in the accumulation of a red pigment on plates with limiting adenine, whereas silencing of MET15 leads to production of a brown pigment on Pb^2+-containing medium. […] Strains with a single extra copy of SIR2 (2×SIR2) or lacking SIR2 (sir2::TRP1), were included as controls for increased silencing and lack of silencing, respectively.

`NC(=O)c1cccnc1` [nicotinamide] was tested. Which “mode of inhibition of SIRT1 (Lineweaver-Burk plot)” value (recombinant human SIRT1; varying amounts of nicotinamide and NAD+) did it give?
The value was “non-competitive”.

And the “mode of inhibition of Sir2 deacetylation (Lineweaver-Burk plot)” value [1]?
Its value is “strong non-competitive inhibitor”.

And the “Average life span, sir2 strain” value ([2]; sir2::TRP1 (YDS1594), 5 mM nicotinamide)?
The value was 11.7.

What about the “Average life span, wild type” value ([2]; wild type (PSY316AT), 5 mM nicotinamide) of the same molecule?
The value was 12.1.

What about the “rDNA recombination in the sir2 strain” value ([3]; sir2 strain) of the same molecule?
Its value is “did not further increase recombination”.

What about the “increase of the frequency of ADE2 marker loss at the rDNA” value ([3]; wild type and 2×SIR2 cells) of the same molecule?
Its value is roughly 7 fold.

What about the “telomeric silencing of ADE2 marker” value (silencing at telomeres) of the same molecule?
Its value is “complete loss of repression”.

And the “silencing of mating type genes” value [4]?
The value was “completely abrogated silencing”.

And the “HMR silencing in G1-arrested cells by FACS” value ([5]; alpha factor arrested cells, 5 mM nicotinamide)?
Its value is “loss of silencing”.

And the “GFP expression from HMR by FACS” value [5]?
The value was “complete derepression”.

And the “GFP expression from HMR, live cells (microscopy)” value ([5]; cycling cells, 5 mM nicotinamide, after 60 minutes)?
The value was “dramatic increase in the level of expression”.

And the Sir2 protein levels (Sir2)?
The Sir2 protein levels was “unaltered”.

What about the “ChIP: Sir2 association with 5S rDNA” value [6] of the same molecule?
Its value is “did not alter the amount of PCR product”.

What about the “ChIP: Sir2 association with HMR” value [6] of the same molecule?
The value was “no PCR product was obtained”.

And the “ChIP: Sir2 association with sub-telomeric DNA” value ([6]; 0.6 and 1.4 kb from telomere)?
The value was “equivalent to background”.

And the “silencing of MET15 marker at the rDNA locus” value ([7]; 5 mM nicotinamide)?
The value was “completely abolished”.

What about the “Silencing of an ADE2 marker at the rDNA locus” value ([7]; addition of nicotinamide) of the same molecule?
The value was “similarly abolished”.

Which “GFP expression from HMR by FACS” value [5] does the source give for `O=C(O)c1cccnc1C(=O)O` [quinolinic acid] here?
The value was “no increase in GFP expression”.

How did the “effect on the activity of SIRT1 in vitro” value (recombinant human SIRT1; 50 μM compound, 200 μM NAD+) turn out when `O=C(O)c1cccnc1` [nicotinic acid] was run?
Its value is “no effect”.

What about the “effect on replicative life span” value ([2]; 5 or 50 mM nicotinic acid) of the same molecule?
Its value is “no detrimental effect”.

What about the “Average life span, sir2 strain” value ([2]; sir2 strain, nicotinic acid (concentration not clear)) of the same molecule?
The value was 12.2.

And the “Average life span, wild type” value ([2]; wild type, 5 mM nicotinic acid)?
The value was 26.

And the “Average life span, wild type” value ([2]; wild type, 50 mM nicotinic acid)?
Its value is 25.

And the “GFP expression from HMR by FACS” value [5]?
The value was “no increase in GFP expression”.

What about the “effect on Sir2-dependent silencing” value ([7]; 5 mM nicotinic acid, each of the rDNA, telomeric and mating type silencing assays) of the same molecule?
Its value is “no effect”.
